Data published in patent publication US8076346B2 (priority 2000, dated 2011).

Columns and labels:
[1] = Pharmacokinetics of DPB after oral DPB or NaDPB and IV NaDPB in Beagle dogs; assay type: in vivo; settings: for AUC(0-t): Beagle, 75 mg/kg
Method: (§1) In accordance with the present invention, pharmacokinetic parameters were calculated using standard non-compartmental methods, as implemented in WinNonlin™ 4.0.1. […] The mean, SD and CV (%) were used to calculate the AUC0-t (μg·h/mL), C. (μg/ml) (the maximum observed concentration), Tmax (hours) (the time to reach that peak concentration) and Kel (the elimination rate constant) for each animal and each analyte.
(§2) AUC0-t was calculated using the linear trapezoidal rule, which employs an approximate integration formula. The area of each trapezoid was calculated, and the sum of all the areas of all the trapezoids yielded an estimate of the true area under the curve. (See, Gibaldi et al. Pharmacokinetics. 2nd Ed. Marcel Dekker, Inc., 1982; Yeh et al., A comparison of numerical integrating algorithms by trapezoidal, lagrange, and spline approximations. J. Pharmacokinet Biopharm. 6: 79 (1978), the disclosure of which is herein incorporated by reference.) Cmax and Tmax were then determined for each concentration vs. time profile. Elimination rate constant (Kel) was calculated using regression analyses on the natural log (ln) of plasma concentration values (y) versus time (x).
We examined the delivery of DPB to the vascular compartment by administrating directly DPB and compared it with the sodium salt of DPB in dogs. This study compared the pharmacokinetics of DPB after oral administration of a single dose of DPB (75 mg/kg) or sodium salt of DPB (75 mg/kg) in Beagle dogs. Twenty-eight Beagle dogs were administered DPB and sodium salt of DPB by a single oral gavage (n=24). Blood samples were obtained pre-dose and 0.5, 1, 2, 3, 4, 6, 12, 18, 24, 36 and 48 hours after dosing. DPB was quantified in plasma using HPLC (LLOQ=0.25 μg/mL).
(§3) We calculated AUC0-t for DPB at various times (24, 36 and 48 hours) after oral administrations of DPB and sodium salt of DPB.

[2] = Brain concentration of DPB after oral DPB or NaDPB and IV NaDPB in Sprague-Dawley rats; assay type: in vivo; settings: for concentration at 18 h / concentration at 24 h / concentration at 36 h / concentration at 48 h: rat, in vivo
Method: In this study, we measured the brain concentration of DPB. Brains were collected as soon as possible after euthanasia from each rat. They were stored in a freezer at −80° C. prior to determination of DPB brain tissue concentrations. Table 6 summarizes the brain concentrations of DPB after oral administration of DPB and sodium salt of DPB in Sprague-Dawley rats.

[3] = Pharmacokinetics of DPB after oral DPB or NaDPB and IV NaDPB in Sprague-Dawley rats; assay type: in vivo; settings: for AUC(0-t): Sprague-Dawley, 150 mg/kg; for AUC(0-t) / Cmax / Tmax / half-life / bioavailability: rat, in vivo; for bioavailability: read-out: F (absolute bioavailability)
Method: as §1, §2
We examined the delivery of DPB to the vascular compartment by administrating directly DPB and compared it with the sodium salt of DPB. This study compared the pharmacokinetics of DPB after oral administration of DPB (150 mg/kg) and sodium salt of DPB (150 mg/kg) in rats. Fifty-four rats were administered DPB and sodium salt of DPB by a single oral gavage (n=54). Blood samples were obtained (approximately 0.5 mL each) were collected following each treatment from animal via the jugular vein. Blood samplings from groups of 3 rats/sex/time point were collected at various times after dosing, in order to provide the complete time-points of pre-dose, 0, 0.5, 1, 2, 3, 4, 6, 12, 18, 24, 36 and 48 hours after dosing. Each blood sample was collected into a tube containing lithium heparin and the samples were spun in a refrigerated centrifuge. The resultant plasma was stored at −80° C. prior to analysis. DPB was quantified in plasma using HPLC (LLOQ=0.25 μg/mL).
as §3

[4] = tested on: seizure induced either by electroshock or pentylenetetrazole; settings: mice, given by stomach tube; cited from earlier work
[5] = in vivo; settings: dog, analyte MMMDPB
Method: as §1, §2
Blood samples were obtained pre-dose and 0.25, 0.5, 1, 2, 3, 4, 6, 9, 12, 15, 18, and 24 hours after dosing. Venous blood (˜1 mL) were drawn and collected in lithium heparin (anticoagulant). Blood samples were spun in a refrigerated centrifuge and plasma were stored at −80° C. prior to analysis. […] Calibration curves were obtained using a weighted (1/C^2) least squares linear regression analysis of peak area ratio (analyte/internal standard) versus the nominal concentration of the calibration standards. Concentrations were obtained by interpolation from the run defined calibration curve. Regressions and figures were generated by PE Sciex Analyst Version 1.2 software.
Plasma samples were thawed and subjected to solid phase extraction with 2 mL acetonitrile prior to HPLC method with Tandem Mass Spectrometry Detection. Chromatographic conditions were performed as followed: […]

[6] = dog, in vivo, po, oral 75 mg/kg, analyte DPB in plasma, read-out: AUC0-t
[7] = dog, in vivo, po, oral 75 mg/kg, analyte DPB, read-out: AUC0-24
[8] = dog, in vivo, po, oral 75 mg/kg, analyte DPB, read-out: AUC0-36
[9] = dog, in vivo, po, oral 75 mg/kg, analyte DPB, read-out: AUC0-48
[10] = dog, in vivo, oral 75 mg/kg, analyte DPB in plasma
[11] = female, po, Sprague-Dawley rats, female, oral 150 mg/kg, analyte DPB in plasma, read-out: AUC0-t
[12] = female, po, female, oral 150 mg/kg, analyte DPB, read-out: AUC0-36
[13] = female, po, female, oral 150 mg/kg, analyte DPB, read-out: AUC0-48
[14] = male, po, Sprague-Dawley rats, male, oral 150 mg/kg, analyte DPB in plasma, read-out: AUC0-t
[15] = male, po, male, oral 150 mg/kg, analyte DPB, read-out: AUC0-36
[16] = male, po, male, oral 150 mg/kg, analyte DPB, read-out: AUC0-48
[17] = Sprague-Dawley rats, female, oral 150 mg/kg, analyte DPB in plasma
[18] = Sprague-Dawley rats, male, oral 150 mg/kg, analyte DPB in plasma
[19] = dog, in vivo, IV infusion 75 mg/kg, analyte DPB in plasma
[20] = oral 75 mg/kg, relative to oral DPB free acid
[21] = Sprague-Dawley rats, female, IV infusion 150 mg/kg, analyte DPB in plasma
[22] = Sprague-Dawley rats, male, IV infusion 150 mg/kg, analyte DPB in plasma

O=C1NC(=O)C(c2ccccc2)(c2ccccc2)C(=O)N1 [DPB, 5,5-diphenyl barbituric acid, reference compound]
AUC(0-t) [1, 6]: 222 µg·h/mL | AUC(0-t) [1, 7]: 231 µg·h/mL | AUC(0-t) [1, 8]: 234 µg·h/mL | AUC(0-t) [1, 9]: 234 µg·h/mL | Cmax [1, 10]: 18.7 µg/mL | Tmax [1, 10]: 6.5 h | half-life [1, 10]: 240 min | Mean brain concentration of DPB ([2]; male, oral 150 mg/kg, 48 hr): BQL | AUC(0-t) [3, 11]: 1950 µg·h/mL | AUC(0-t) [3, 12]: 1600 µg·h/mL | AUC(0-t) [3, 13]: 1950 µg·h/mL | AUC(0-t) [3, 14]: 776 µg·h/mL | AUC(0-t) [3, 15]: 757 µg·h/mL | AUC(0-t) [3, 16]: 776 µg·h/mL | Cmax [3, 17]: 74 µg/mL | Tmax [3, 17]: 12 h | half-life [3, 17]: 1990 min | Cmax [3, 18]: 38.3 µg/mL | Tmax [3, 18]: 6 h | half-life [3, 18]: 396 min | protection from seizure [4]: effective

COCN1C(=O)NC(=O)C(c2ccccc2)(c2ccccc2)C1=O [MMMDPB, monomethoxymethyl-5,5-diphenyl barbituric acid, reference compound]
bioavailability ([5]; Beagle, Beagle dogs, oral 30 mg/kg vs IV 15 mg/kg, read-out: F (absolute bioavailability)): 107% | bioavailability ([5]; Beagle, po, 30 mg/kg, mean oral bioavailability of MMMDPB, Beagle dogs, oral 30 mg/kg, mean): 107% | bioavailability ([5]; Beagle, po, 30 mg/kg, oral bioavailability of MMMDPB, range, Beagle dogs, oral 30 mg/kg, range over animals): 43 to 177%

O=C1NC(=O)C(c2ccccc2)(c2ccccc2)C(=O)N1.[Na] [NaDPB, sodium 5,5-diphenyl barbiturate]
AUC(0-t) ([1]; dog, in vivo, iv, IV infusion 75 mg/kg, analyte DPB in plasma, read-out: AUC0-t): 1570 µg·h/mL | AUC(0-t) ([1]; dog, in vivo, iv, IV infusion 75 mg/kg, analyte DPB, read-out: AUC0-24): 1410 µg·h/mL | AUC(0-t) ([1]; dog, in vivo, iv, IV infusion 75 mg/kg, analyte DPB, read-out: AUC0-36): 1600 µg·h/mL | AUC(0-t) ([1]; dog, in vivo, iv, IV infusion 75 mg/kg, analyte DPB, read-out: AUC0-48): 1620 µg·h/mL | AUC(0-t) [1, 6]: 883 µg·h/mL | AUC(0-t) [1, 7]: 883 µg·h/mL | AUC(0-t) [1, 8]: 962 µg·h/mL | AUC(0-t) [1, 9]: 962 µg·h/mL | Cmax [1, 19]: 95.7 µg/mL | Tmax [1, 19]: 0.5 h | half-life [1, 19]: 360 min | bioavailability ([1]; dog, in vivo, oral 75 mg/kg vs IV 75 mg/kg, read-out: absolute bioavailability of DPB): ~58% | Cmax [1, 10]: 54.2 µg/mL | Tmax [1, 10]: 7.8 h | half-life [1, 10]: 354 min | AUC0-t for DPB, increase versus oral DPB [1, 20]: ~4 fold | Cmax for DPB, increase versus oral DPB [1, 20]: ~3 fold | concentration at 18 h ([2]; female, IV infusion 150 mg/kg): 36100 ng/g | concentration at 24 h ([2]; female, IV infusion 150 mg/kg): 40700 ng/g | concentration at 36 h ([2]; female, IV infusion 150 mg/kg): 21900 ng/g | concentration at 24 h ([2]; female, oral 150 mg/kg): 25800 ng/g | concentration at 36 h ([2]; female, oral 150 mg/kg): 28400 ng/g | concentration at 48 h ([2]; female, oral 150 mg/kg, 48 hr): 14900 ng/g | concentration at 18 h ([2]; male, IV infusion 150 mg/kg): 41200 ng/g | concentration at 24 h ([2]; male, IV infusion 150 mg/kg): 35600 ng/g | concentration at 36 h ([2]; male, IV infusion 150 mg/kg): 27500 ng/g | concentration at 24 h ([2]; male, oral 150 mg/kg): 29900 ng/g | concentration at 36 h ([2]; male, oral 150 mg/kg): 23600 ng/g | concentration at 48 h ([2]; male, oral 150 mg/kg, 48 hr): 9460 ng/g | AUC0-t for DPB, increase versus oral DPB ([3]; Sprague-Dawley rats, female, oral 150 mg/kg, relative to oral DPB free acid): ~2 fold | AUC(0-t) ([3]; female, iv, Sprague-Dawley rats, female, IV infusion 150 mg/kg, analyte DPB in plasma, read-out: AUC0-t): 4330 µg·h/mL | AUC(0-t) ([3]; female, iv, female, IV infusion 150 mg/kg, analyte DPB, read-out: AUC0-36): 4760 µg·h/mL | AUC(0-t) [3, 11]: 4040 µg·h/mL | AUC(0-t) [3, 12]: 3130 µg·h/mL | AUC(0-t) [3, 13]: 4040 µg·h/mL | AUC(0-t) ([3]; male, iv, Sprague-Dawley rats, male, IV infusion 150 mg/kg, analyte DPB in plasma, read-out: AUC0-t): 4030 µg·h/mL | AUC(0-t) ([3]; male, iv, male, IV infusion 150 mg/kg, analyte DPB, read-out: AUC0-36): 4610 µg·h/mL | AUC(0-t) ([3]; male, iv, male, IV infusion 150 mg/kg, analyte DPB, read-out: AUC0-48): 5690 µg·h/mL | AUC(0-t) [3, 14]: 3410 µg·h/mL | AUC(0-t) [3, 15]: 2720 µg·h/mL | AUC(0-t) [3, 16]: 3410 µg·h/mL | Cmax [3, 21]: 174 µg/mL | Tmax [3, 21]: 2 h | half-life [3, 21]: 1610 min | Cmax [3, 17]: 104 µg/mL | Tmax [3, 17]: 12 h | half-life [3, 17]: 1970 min | bioavailability ([3]; Sprague-Dawley rats, female, oral 150 mg/kg, analyte DPB): 87.7% | Cmax [3, 22]: 184 µg/mL | Tmax [3, 22]: 1 h | half-life [3, 22]: 1450 min | Cmax [3, 18]: 86.9 µg/mL | Tmax [3, 18]: 18 h | half-life [3, 18]: 1060 min | bioavailability ([3]; Sprague-Dawley rats, male, oral 150 mg/kg, analyte DPB): 70.6%

COCN1C(=O)NC(=O)C(c2ccccc2)(c2ccccc2)C1=O.[Na] [NaMMMDPB, sodium monomethoxymethyl-5,5-diphenyl barbiturate]
bioavailability ([5]; in vivo, 30 mg/kg, oral 30 mg/kg vs IV 15 mg/kg, read-out: F (absolute bioavailability)): 60% | bioavailability ([5]; in vivo, po, 30 mg/kg, mean oral bioavailability of MMMDPB, oral 30 mg/kg, mean): 60% | bioavailability ([5]; in vivo, po, 30 mg/kg, oral bioavailability of MMMDPB, range, oral 30 mg/kg, range over animals): 34 to 99%
